Experimental data published in patent US20260022143A1, “Cyclic Peptide Inhibitors of IL-23” (JANSSEN PHARMACEUTICA NV, priority 2022, published 2026).
Starred links: 1 amine or outer side, 2 acyl side, 3 side chain; linkers in the order of their positions; H or OH if unused. Positions of bridges follow the written chain, without caps; N, C: chain ends. Non-standard residues stand in square brackets, D forms with d. Residues, ends and D or L forms follow the SMILES beside them. Groups on a side chain read outwards from the residue. *: point of attachment. Trp(7-(3-AcNH-Ph)) = CC(=O)Nc1cccc(-c2cccc3c(C[C@H](N)C(=O)O)c[nH]c23)c1; Me3N+(CH2)2O(CH2)2O(CH2)2CO = C[N+](C)(C)CCOCCOCCC(=O)*; X67 = COCc1cn(-c2ccc(C[C@H](N[*:1])C(=O)[*:2])cc2)nn1; Trp(7-Me) = Cc1cccc2c(C[C@H](N)C(=O)O)c[nH]c12; γGlu = O=C(O)[C@H](CCC(=O)[*:2])N[*:1]; 2Nal = N[C@@H](Cc1ccc2ccccc2c1)C(=O)O; AEF = NCCOc1ccc(C[C@H](N)C(=O)O)cc1; dNMeY = CN[C@H](Cc1ccc(O)cc1)C(=O)O; X32 = C(CCC*)CC[N+]12CCN(CC1)CC2; 3Pal = N[C@@H](Cc1cccnc1)C(=O)O; Myristoyl = CCCCCCCCCCCCCC(=O)*; Lys(Me) = CNCCCC[C@H](N)C(=O)O; NMeK = CN[C@@H](CCCCN)C(=O)O; Pen = CC(C)(S)[C@H](N)C(=O)O; αMeK = C[C@](N)(CCCCN)C(=O)O; Thp = NC1(C(=O)O)CCOCC1; X3 = C[N+](C)(C)CCCCC*; AEEA = NCCOCCOCC(=O)O; Sar = CNCC(=O)O

test: Exposed Polar Surface Area (EPSA); assay type: physicochemical; details: SFC on Chirex 3014 column; sample 1 mM DMSO stock; read-out: EPSA
Procedure, shortened: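 Polarity descriptor in Å² derived from retention time using 8 calibration standards re-run every 20 compounds. Duplicate injections of 1 mM DMSO stock; linear 5–60% modifier gradient (20 mM ammonium formate in MeOH) with CO2 at 4 mL/min, 35 °C, on a Chirex 3014 column.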

Compound	EPSA
CC(=O)NCCCC[C@@H]1NC(=O)[C@H](Cc2c[nH]c3c(C)cccc23)NC(=O)[C@H]([C@@H](C)O)NC(=O)[C@H](CC(N)=O)NC(=O)[C@@H](NC(C)=O)C(C)(C)SSC(C)(C)[C@@H](C(=O)N[C@@H](Cc2ccc(OCCN)cc2)C(=O)N[C@@H](Cc2ccc3ccccc3c2)C(=O)N[C@@](C)(CCCCN)C(=O)N[C@@H](CCCCNC(C)=O)C(=O)N[C@@H](CC(N)=O)C(=O)N[C@@H](Cc2cccnc2)C(=O)N(C)[C@H](Cc2ccc(O)cc2)C(N)=O)NC1=O [compound 30, MeCO-Pen(3)-N-T-7MeW-K(Ac)-Pen(3)-AEF-2Nal-aMeK-K(ac)-N-3Pya-NMeDTyr-CONH2] (Ac-[Pen]NT[Trp(7-Me)]K(Ac)[Pen][AEF][2Nal][αMeK]K(Ac)N[3Pal][dNMeY]-NH2; disulfide 1-6)	166 A^2
CC(=O)N(C)CCCC[C@@H]1NC(=O)[C@H](Cc2c[nH]c3c(C)cccc23)NC(=O)[C@H]([C@@H](C)O)NC(=O)[C@H](CC(=O)N(C)C)NC(=O)[C@@H](NC(=O)CCOCCOCC[N+](C)(C)C)C(C)(C)SSC(C)(C)[C@@H](C(=O)N[C@@H](Cc2ccc(OCCCCCC[N+]34CCN(CC3)CC4)cc2)C(=O)N[C@@H](Cc2ccc3ccccc3c2)C(=O)NC2(C(=O)N[C@@H](CCCCN(C)C(C)=O)C(=O)N[C@@H](CC(N)=O)C(=O)N[C@@H](Cc3cccnc3)C(=O)N(C)CC(=O)N(C)C)CCOCC2)NC1=O [compound 292, cPEG3aCO-Pen(3)-N(N(Me)2)-T-7MeW-K(NMeAc)-Pen(3)-Diazabiclyclooctane6F-2Nal-THP-K(NMeAc)-N-3Pya-Sar-CON(Me)2] ({Me3N+(CH2)2O(CH2)2O(CH2)2CO}-[Pen]D(NMe2)T[Trp(7-Me)][Lys(Me)](Ac)[Pen]Y(X32)[2Nal][Thp][Lys(Me)](Ac)N[3Pal][Sar]-NMe2; disulfide 1-6)	152 A^2
CC(=O)N[C@@H]1C(=O)N[C@@H](CC(=O)N(C)C)C(=O)N[C@@H]([C@@H](C)O)C(=O)N[C@@H](Cc2c[nH]c3c(C)cccc23)C(=O)N[C@@H](COCCOCC[N+](C)(C)C)C(=O)N[C@H](C(=O)N[C@@H](Cc2ccc(OCCOCCOCC[N+](C)(C)C)cc2)C(=O)N[C@@H](Cc2ccc3ccccc3c2)C(=O)NC2(C(=O)N[C@@H](COCCOCC[N+](C)(C)C)C(=O)N[C@@H](CC(N)=O)C(=O)N[C@@H](Cc3cccnc3)C(=O)N(C)CC(=O)N(C)C)CCOCC2)C(C)(C)SSC1(C)C (relative stereo) [compound 256, MeCO-Pen(3)-N(N(Me)2)-T-7MeW-APEG2Ser(S*)-Pen(3)-APEG3F-2Nal-THP-APEG2Ser(S*)-N-3Pya-Sar-CON(Me)2]	142 A^2

Continued, values first:

EPSA	Compound
174 A^2	CC(=O)NCCCC[C@@H]1NC(=O)[C@H](Cc2c[nH]c3c(-c4cccc(NC(C)=O)c4)cccc23)NC(=O)[C@H]([C@@H](C)O)NC(=O)[C@H](CC(N)=O)NC(=O)[C@@H](NC(=O)CCOCCOCC[N+](C)(C)C)C(C)(C)SSC(C)(C)[C@@H](C(=O)N[C@@H](Cc2ccc(OCCCCC[N+](C)(C)C)cc2)C(=O)N[C@@H](Cc2ccc3ccccc3c2)C(=O)NC2(C(=O)N[C@@H](CCC(=O)O)C(=O)N[C@@H](CC(N)=O)C(=O)N[C@@H](Cc3cccnc3)C(=O)N(C)CC(N)=O)CCOCC2)NC1=O [compound 444, cPEG3aCO-Pen(3)-N-T-7(3NAcPh)W-K(Ac)-Pen(3)-TMAPF-2Nal-THP-E-N-3Pya-Sar-CONH2] ({Me3N+(CH2)2O(CH2)2O(CH2)2CO}-[Pen]NT[Trp(7-(3-AcNH-Ph))]K(Ac)[Pen]Y(X3)[2Nal][Thp]EN[3Pal][Sar]-NH2; disulfide 1-6)
184 A^2	CCCCCCCCCCCCCC(=O)N[C@@H](CCC(=O)NCCOCCOCC(=O)NCCOCCOCC(=O)NCCCC[C@H](NC(=O)C1(NC(=O)[C@H](Cc2ccc3ccccc3c2)NC(=O)[C@H](Cc2ccc(OCCCCC[N+](C)(C)C)cc2)NC(=O)[C@H]2NC(=O)[C@H](CCCCNC(C)=O)NC(=O)[C@H](Cc3c[nH]c4c(C)cccc34)NC(=O)[C@H]([C@@H](C)O)NC(=O)[C@H](CC(=O)N(C)C)NC(=O)[C@@H](NC(=O)CCOCCOCC[N+](C)(C)C)C(C)(C)SSC2(C)C)CCOCC1)C(=O)N[C@@H](CC(N)=O)C(=O)N[C@@H](Cc1cccnc1)C(=O)N(C)[C@@H](CCCCNC(=O)COCCOCCNC(=O)COCCOCCNC(=O)CC[C@H](NC(=O)CCCCCCCCCCCCC)C(=O)O)C(N)=O)C(=O)O [compound 351, cPEG3aCO-Pen(3)-N(N(Me)2)-T-7MeW-K(Ac)-Pen(3)-TMAPF-2Nal-THP-K(PEG2PEG2gEC14)-N-3Pya-NMeK(PEG2PEG2gEC14)-CONH2] ({Me3N+(CH2)2O(CH2)2O(CH2)2CO}-[Pen]D(NMe2)T[Trp(7-Me)]K(Ac)[Pen]Y(X3)[2Nal][Thp]K([AEEA-AEEA-γGlu-Myristoyl])N[3Pal][NMeK]([AEEA-AEEA-γGlu-Myristoyl])-NH2; disulfide 1-6)
152 A^2	COCc1cn(-c2ccc(C[C@H](NC(=O)[C@H]3NC(=O)[C@H](CCCCN(C)C(C)=O)NC(=O)[C@H](Cc4c[nH]c5c(C)cccc45)NC(=O)[C@H]([C@@H](C)O)NC(=O)[C@H](CC(=O)N(C)C)NC(=O)[C@@H](NC(=O)CCOCCOCC[N+](C)(C)C)C(C)(C)SSC3(C)C)C(=O)N[C@@H](Cc3ccc4ccccc4c3)C(=O)NC3(C(=O)N[C@@H](CCCCN(C)C(C)=O)C(=O)N[C@@H](CC(N)=O)C(=O)N[C@@H](Cc4cccnc4)C(=O)N(C)CC(=O)N(C)C)CCOCC3)cc2)nn1 [compound 303, cPEG3aCO-Pen(3)-N(N(Me)2)-T-7MeW-K(NMeAc)-Pen(3)-F(4TzlMME)-2Nal-THP-K(NMeAc)-N-3Pya-Sar-CON(Me)2] ({Me3N+(CH2)2O(CH2)2O(CH2)2CO}-[Pen]D(NMe2)T[Trp(7-Me)][Lys(Me)](Ac)[Pen][X67][2Nal][Thp][Lys(Me)](Ac)N[3Pal][Sar]-NMe2; disulfide 1-6)
